The source of these data is patent US20080058411A1, “Methods For Treating Resistant Or Refractory Tumors” (GPC Biotech AG, priority 2004, published 2008).

The test system of data set [1] is NCI-Adr resistant subline. The experiment in a line: SRB cytotoxicity assay, P-glycoprotein expressing NCI-Adr resistant subline, with and without verapamil. Format: cell-based. As to conditions: for IC50: 48 hours, SRB; for RR (relative resistance) NCI-Adr resistant −verapamil vs +verapamil: ratio of the means of the resistant cells compared to the sensitive cells. In general terms: In SRB staining, fixed cells bind dye roughly in proportion to their protein.
Description: (§5) Briefly, cells were plated in 96 well dishes 24 hours prior to compound addition. Where noted, they were exposed to verapamil for 4 hours prior to compound addition and then throughout the treatment period (48 hours). The assay was terminated with the addition of cold TCA to a final concentration of 10% and the plates were incubated for one hour at 4° C. The plates were then washed 5 times with water and 100 μl of a Sulforhodamine B solution (4%) was added to each well. The plate was then incubated for 10 minutes at room temperature before removal of unbound dye by washing with 1% acetic acid. The bound dye was solubilized with 10 mM Trizma base and the absorbance read at OD570.

For a further data set, the system named is cells in S-phase. As to conditions: in vitro; cited from earlier work.
In another data set the test system is CCRF/CEM cells. The experiment in a line: Calcein AM viability assay (flow cytometry), parental CEM cells. Format: cell-based, human. As to conditions: 48 hours, read-out: IC50 CEM ("non-resistant"). Here is the method:
(§1) The Camptothecin resistant CEM/C2 cells were derived from the T lymphoblastoid leukemia cell line CCRF/CEM by selection in the presence of Camptohecin in vitro (Kapoor et al., 1995. Oncology Research 7; 83-95, ATCC
(§2) The cells were plated in T-25 flasks in the presence or absence of compound and incubated for 48 hours before termination of the assay. Cells were washed twice with PBS and incubated in 200 μl of a solution of Calcein AM (0.3 nM)/PBS for 90 minutes at 37° C. The cells were washed once with PBS before determining fluorescent units on a FACS can flow cytometer.

The test system of another data set is CEM/C2 cells. The experiment in a line: Calcein AM viability assay (flow cytometry), camptothecin resistant CEM/C2 cells. Conditions: for IC50: 48 hours, Calcein AM; for RR (relative resistance) CEM/C2 vs CEM: atypical multi-drug resistance and mutant topoisomerase I. It counts as cell-based, human. Here is the method: as §1, §2
The subject of the next data set is MCF-7/VP cells. As to the kind of experiment: SRB cytotoxicity assay, etoposide-resistant MCF-7/VP cells (MRP1 up-regulated). Format: cell-based. Conditions: for IC50: 48 hours, SRB; for RR (relative resistance) MCF7/VP vs MCF7: mean +/- SD. The source says: (§3) The etoposide-resistant breast cancer cell line MCF-7/VP was used (Schneider et al, Cancer Res, 54, 152). […] ABCC1; Schneider et al, Cancer Res, 54, 152; Perez-Soler et al, Int J Cancer, 71,35). The parental cell line, MCF-7, was used as a control.

The next data set relates to 1A9-PTX10 cells. As to the kind of experiment: SRB cytotoxicity assay, tubulin mutated paclitaxel-resistant 1A9-PTX10 cells. As to conditions: for IC50: 48 hours exposure, SRB, mean +/- SD, number of experiments in brackets; for RR (relative resistance) 1A9-PTX10 vs 1A9: ratio of the means of the resistant cells compared to the sensitive cells. Format: cell-based, human. The source says: (§4) The tubulin mutated, paclitaxel-resistant human ovarian carcinoma cell line 1A9-PTX10 and its parental paclitaxel-sensitive cell line 1A9 were derived from the A2780 human ovarian carcinoma cell line (J Biol Chem (1997) 272, 17118-17124).

The subject of another data set is A129 cp80 cells. The experiment in a line: SRB cytotoxicity assay, cisplatin-resistant A129 cp80 cells. Format: cell-based, human. Conditions: for IC50: 48 hours, SRB.
Another data set concerns 1A9 cells. As to the kind of experiment: SRB cytotoxicity assay, parental paclitaxel-sensitive 1A9 cells. It counts as cell-based, human. As to conditions: mean +/- SD, number of experiments in brackets, read-out: IC50 1A9 ("non-resistant").
Source text: as §4

A further data set relates to A129 cells. As to the kind of experiment: SRB cytotoxicity assay, parental A129 cells. It counts as cell-based, human. Conditions: 48 hours, read-out: IC50 A129 ("non-resistant").
The test system of another data set is MCF-7 cells. As to the kind of experiment: SRB cytotoxicity assay, parental MCF-7 cells. It counts as cell-based. Conditions: read-out: IC50 MCF7 ("non-resistant").
Source text: as §3

In another data set the test system is HT29 cells. The experiment in a line: SRB cytotoxicity assay, parental HT29 cells. Format: cell-based. As to conditions: read-out: IC50 HT-29 ("non-resistant").
For another data set, the system named is HT29/MIT cells. As to the kind of experiment: SRB cytotoxicity assay, mitoxantrone-resistant HT29/MIT cells (BCRP up-regulated). Conditions: for RR (relative resistance) HT-29/MIT vs HT-29: mean +/- SD; for IC50: read-out: IC50 HT-29/MIT ("resistant").
Another data set deals with P-gp (Homo sapiens, UniProt P08183). Conditions: more potent than cyclosporine; cited from earlier work.
Setting [2] is: Homo sapiens, NCI/ADR-RES, no verapamil, read-out: IC50 NCI-Adr resistant −verapamil ("resistant").
Setting [3] is: Homo sapiens, NCI/ADR-RES, verapamil 12.5 μg/ml, read-out: IC50 NCI-Adr resistant +verapamil ("non-resistant").
The mark [4] stands for this setting: read-out: IC50 MCF7/VP ("resistant").
[5] abbreviates: no verapamil, read-out: IC50 NCI-Adr resistant −verapamil ("resistant").
The mark [6] stands for this setting: verapamil 12.5 μg/ml, read-out: IC50 NCI-Adr resistant +verapamil ("non-resistant").
Where [7] appears, read: Homo sapiens, 1A9, 48 hours exposure.

Like-named read-outs stand apart in the source and are kept apart here.

P-gp, sequence (P08183 whole entry): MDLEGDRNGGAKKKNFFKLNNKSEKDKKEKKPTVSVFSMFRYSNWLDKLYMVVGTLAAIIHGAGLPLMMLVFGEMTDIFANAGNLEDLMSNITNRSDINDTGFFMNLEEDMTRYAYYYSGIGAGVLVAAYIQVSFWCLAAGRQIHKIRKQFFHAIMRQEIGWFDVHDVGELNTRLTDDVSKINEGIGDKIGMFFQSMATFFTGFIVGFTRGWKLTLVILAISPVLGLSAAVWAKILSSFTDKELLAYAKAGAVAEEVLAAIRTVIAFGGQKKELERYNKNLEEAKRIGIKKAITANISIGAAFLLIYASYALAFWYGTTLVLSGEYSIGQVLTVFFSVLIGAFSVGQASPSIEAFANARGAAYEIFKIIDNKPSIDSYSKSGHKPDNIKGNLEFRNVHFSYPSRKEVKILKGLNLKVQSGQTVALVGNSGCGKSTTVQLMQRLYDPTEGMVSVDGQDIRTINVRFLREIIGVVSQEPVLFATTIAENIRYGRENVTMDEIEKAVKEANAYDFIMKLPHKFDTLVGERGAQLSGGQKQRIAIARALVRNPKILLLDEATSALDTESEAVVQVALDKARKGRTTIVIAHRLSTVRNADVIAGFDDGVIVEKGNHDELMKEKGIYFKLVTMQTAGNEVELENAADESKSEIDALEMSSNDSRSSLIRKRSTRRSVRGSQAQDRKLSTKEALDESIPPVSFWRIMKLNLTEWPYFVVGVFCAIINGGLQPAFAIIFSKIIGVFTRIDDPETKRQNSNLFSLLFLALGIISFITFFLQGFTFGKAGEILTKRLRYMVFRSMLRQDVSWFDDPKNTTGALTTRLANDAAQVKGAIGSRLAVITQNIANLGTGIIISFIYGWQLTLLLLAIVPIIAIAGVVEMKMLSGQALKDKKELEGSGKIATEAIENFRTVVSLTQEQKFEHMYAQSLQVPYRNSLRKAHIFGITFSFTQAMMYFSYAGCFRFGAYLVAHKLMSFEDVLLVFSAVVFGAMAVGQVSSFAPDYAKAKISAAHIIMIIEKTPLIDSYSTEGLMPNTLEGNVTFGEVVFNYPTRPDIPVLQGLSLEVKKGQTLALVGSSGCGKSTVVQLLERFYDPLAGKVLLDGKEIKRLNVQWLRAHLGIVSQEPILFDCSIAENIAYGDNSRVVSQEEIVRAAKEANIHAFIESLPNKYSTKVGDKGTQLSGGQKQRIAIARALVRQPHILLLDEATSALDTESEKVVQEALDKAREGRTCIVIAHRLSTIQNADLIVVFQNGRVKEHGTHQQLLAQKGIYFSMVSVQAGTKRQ
Description for A129 cells: (§6) The P-glycoprotein expressing NCI-Adr resistant subline (Vickers et al., 1989. Mol Endocrinology 3 (1):157-164) was used. […] Briefly, cells were plated in 96 well dishes 24 hours prior to compound addition. Where noted, they were exposed to verapamil for 4 hours prior to compound addition and then throughout the treatment period (48 hours). The assay was terminated with the addition of cold TCA to a final concentration of 10% and the plates were incubated for one hour at 4° C. The plates were then washed 5 times with water and 100 μl of a Sulforhodamine B solution (4%) was added to each well. The plate was then incubated for 10 minutes at room temperature before removal of unbound dye by washing with 1% acetic acid. The bound dye was solubilized with 10 mM Trizma base and the absorbance read at OD570.
(§7) The parental non-mutated cell line A 129 was used as control.
(§8) Cytotoxicty was measured using the SRB assay according to Shekan et al. as described above in Example 1A.
Description for A129 cp80 cells: as §6, §7, §8
Description for HT29 cells: as §5
(§9) The mitoxantrone-resistant colon carcinoma cell line HT29/MIT was used (Perego et al, Cancer Res, 61, 6034). […] The parental cell line, HT29, was used as a control.
Description for HT29/MIT cells: as §5, §9

As for `COc1cccc2c1C(=O)c1c(O)c3c(c(O)c1C2=O)C[C@@](O)(C(=O)CO)C[C@@H]3O[C@H]1C[C@H](N)[C@H](O)[C@H](C)O1` [Adriamycin, adriamycin], the IC50 in [1] (setting [2]) was determined as 650 nM; in data set [1] (setting [3]) it was 75000 nM. Further, in data set [1] (individual experiments), the “relative resistance, NCI-Adr resistant subline without vs with verapamil” value is 115 fold. The “RR (relative resistance) NCI-Adr resistant −verapamil vs +verapamil” value in [1] came out at 115.
Regarding `CC[C@@]1(O)C(=O)OCc2c1cc1n(c2=O)Cc2cc3ccccc3nc2-1` [Camptothecin, camptothecin], the “sensitivity to camptothecin of cells in S-phase relative to cells in G1 or G2” value in the data set with cells in S-phase is on record as 100-1000 times. In addition, the IC50 is 5 nM with CCRF/CEM cells (Homo sapiens, CCRF-CEM) and 6750 nM with CEM/C2 cells (Homo sapiens, CEM/C2). Besides, the “RR (relative resistance) CEM/C2 vs CEM” value in the data set on CEM/C2 cells is on record as 1500.
With `N.N.[Cl][Pt][Cl]` [Cisplatin, cisplatin], the IC50 is 31.2 µM in the data set on MCF-7/VP cells (setting [4]); 13900 nM with 1A9-PTX10 cells; 11.6 µM with A129 cp80 cells; 2600 nM in the data set with CCRF/CEM cells; 8400 nM with 1A9 cells (48 hours exposure); 2200 nM with CEM/C2 cells. Also, the IC50 in the data set on A129 cells is 130 nM; in data set [1] (setting [5]) it was 13200 nM; in data set [1] (setting [6]), 13000 nM; in the data set on MCF-7 cells (48 hours), 28.7 µM.
Turning to `COc1cc([C@@H]2c3cc4c(cc3[C@@H](O[C@@H]3O[C@@H]5CO[C@@H](C)O[C@H]5[C@H](O)[C@H]3O)[C@H]3COC(=O)[C@H]23)OCO4)cc(OC)c1O` [Etoposide, etoposide], the IC50 in the data set on MCF-7/VP cells (Homo sapiens, MCF7-VP) was above 100 µM; in the data set on MCF-7 cells (Homo sapiens, MCF7, 48 hours) it was 7.2 µM. Also, the “RR (relative resistance) MCF7/VP vs MCF7” value in the data set with MCF-7/VP cells was above 20. Further, in the data set with MCF-7/VP cells (range over individual experiments), the “relative resistance in individual experiments, MCF-7/VP vs MCF-7” value was above 20 fold.
For the compound `N.NC1CCCCC1.[Cl-].[Cl-].[Pt+2]` [JM118], the IC50 in the data set with MCF-7/VP cells (setting [4]) is 1.3 µM; in the data set with 1A9-PTX10 cells, 1500 nM; in the data set with HT29 cells (48 hours) it was 4500 nM; in the data set with A129 cp80 cells, 0.43 µM; with CCRF/CEM cells it was 430 nM; with HT29/MIT cells (48 hours, SRB), 6 µM. For the same compound, the IC50 in the data set on 1A9 cells (48 hours exposure) is 500 nM; with CEM/C2 cells, 500 nM; in the data set on A129 cells, 170 nM; in data set [1] (setting [5]), 2100 nM; in [1] (setting [6]) it was 2300 nM; in the data set with MCF-7 cells (48 hours), 1.2 µM. For the same compound, in the data set with MCF-7/VP cells, the “RR (relative resistance) MCF7/VP vs MCF7” value was 1.1 +/− 0.1. In addition, in the data set with 1A9-PTX10 cells, the “RR (relative resistance) 1A9-PTX10 vs 1A9” value is 3.1. Also, the “RR (relative resistance) A129 cp80 vs A129” value in the data set on A129 cp80 cells (cisplatin resistance mechanism) is listed as 2.6. For the same compound, in the data set on HT29/MIT cells, the “RR (relative resistance) HT-29/MIT vs HT-29” value was 1.3 +/− 0.1. In the data set with CEM/C2 cells, the “RR (relative resistance) CEM/C2 vs CEM” value is 1.18. The “RR (relative resistance) NCI-Adr resistant −verapamil vs +verapamil” value in [1] was 1.1.
On to `O=C1c2c(O)ccc(O)c2C(=O)c2c(NCCNCCO)ccc(NCCNCCO)c21` [Mitoxantrone, mitoxantrone], for which the IC50 was 1300 nM in the data set on HT29 cells (Homo sapiens, HT-29, 48 hours) and 198 µM with HT29/MIT cells (Homo sapiens, HT-29, 48 h). Besides, the “RR (relative resistance) HT-29/MIT vs HT-29” value with HT29/MIT cells is listed as 175 +/− 67.
Turning to `C/C=C/C[C@@H](C)C(=O)[C@H]1C(=O)N[C@@H](C(C)C)C(=O)N(C)CC(=O)N(C)[C@@H](CC(C)C)C(=O)N[C@@H](C(C)C)C(=O)N(C)[C@@H](CC(C)C)C(=O)N[C@@H](C)C(=O)N[C@H](C)C(=O)N(C)[C@@H](CC(C)C)C(=O)N(C)[C@@H](CC(C)C)C(=O)N(C)[C@@H](C(C)C)C(=O)N1C` [PSC-833], the “P-gp inhibitor potency relative to cyclosporine” value on P-gp is reported as 10 times.
Take `CC(=O)O[C@H]1C(=O)[C@@]2(C)[C@H]([C@H](OC(=O)c3ccccc3)[C@]3(O)C[C@H](OC(=O)[C@H](O)[C@@H](NC(=O)c4ccccc4)c4ccccc4)C(C)=C1C3(C)C)[C@]1(OC(C)=O)CO[C@@H]1C[C@@H]2O` [Paclitaxel, paclitaxel]: the IC50 amounted to 213 nM with 1A9-PTX10 cells (Homo sapiens, 1A9/ptx-10); 5 nM in the data set with 1A9 cells (setting [7]); 1420 nM in data set [1] (setting [2]); 31 nM in [1] (setting [3]). In the data set with 1A9-PTX10 cells, the “RR (relative resistance) 1A9-PTX10 vs 1A9” value came to 42.6. The “RR (relative resistance) NCI-Adr resistant −verapamil vs +verapamil” value in data set [1] is given as 46.
For the compound `CC(=O)O[C@@]12CO[C@@H]1C[C@H](O)[C@@]1(C)C(=O)[C@H](O)C3=C(C)[C@@H](OC(=O)[C@H](O)[C@@H](NC(=O)OC(C)(C)C)c4ccccc4)C[C@@](O)([C@@H](OC(=O)c4ccccc4)[C@H]21)C3(C)C` [Taxotere, N-debenzoyl-N-tert-butoxycarbonyl-10-deacetyl paclitaxel], the IC50 is 212 nM in the data set on 1A9-PTX10 cells (Homo sapiens, 1A9/ptx-10); 2 nM in the data set on 1A9 cells (setting [7]); 620 nM in data set [1] (setting [2]); 19 nM in [1] (setting [3]).
